Experimental findings from US10093674B2, “Supramolecular nanofibers and hydrogels based on nucleic acids functionalized with nucleobases” (Brandeis University, priority 2011, dated 2018) are described below.

Assay [1] has as its system HeLa cells. The note with it: 500 μM, 72 hours; for cell viability: MTT assay. An excerpt: To verify the biocompatibility of the hydrogelators, we added hydrogelator 1 or precursor 2 into the culture of HeLa cells and measured the proliferation of the cells.
Assay [2] has as its system alkaline phosphatase (ALP). The settings on record: 12 h after the addition of alkaline phosphatase, 31P NMR. An excerpt: Following the procedures reported by Nieddu for making nucleobase acetic acids, we first synthesized bis(tert-butyloxycarbonyl) (bis-Boc) protected adenine, (N^6-bis-Boc-adenine-9-yl)-acetic acid (4). After being activated by N-hydroxysuccinimide (NHS), 4 reacts with L-Phe to afford 5, which undergoes the same NHS activation and phenylalanine coupling to give the key intermediate 6.

In a further assay the test system is mammalian cells. The note with it: 500 μM, 72 hours; for cell viability: mammalian cells, MTT assay. On the procedure: To verify the biocompatibility of the hydrogelators, hydrogelators 1′ and 2′ were added into a culture of mammalian cells, and the proliferation of the cells was measured.
On the technique in general: Tetrazolium dyes change colour on reduction, which living cells bring about.

In assay [3] the test system is HeLa cells. The settings on record: 500 μM 1T′ and 0.1 μM nucleic acid complex, 24 h. The procedure:
HeLa cells were seeded in 2 well chamber slide at a density of 10,000 cell/well. […] After incubation at 37° C. for 24 h, we removed the culture medium, washed the cells by 1 mL PBS for 3 times, then resin the cells in 1 mL PBS. Fluorescence images were taken by using confocal fluorescence microscope. FIG. 34.

The test system of assay [4] is HeLa cells. The settings on record: 500 μM in medium, 20 h.
Description: HeLa cells were re-suspended in 10 cm tissue culture dish after washing cells once with PBS. 0.8 mL 0.25% trypsin containing 0.1% EDTA was then added, and the cells were re-suspended with 1.6 mL complete medium. 5000 cells (in 100 μL medium) were plated into each vial on a 96 well plate to create a confluent monolayer. After adherent for 24 h, a wound was created by scraping the cell monolayer with a p200 pipet tip. The cells were washed once with 100 μL of complete medium to remove flowing cells and replace with 100 μL of complete medium. 0 h image was acquired as a reference point. […] 0 h and 20 h images were acquired at the match photographed region.

On to Adenine-Phe-Phe [Compound 1A], for which the cell viability – broadly, a read-out of living cells in per cent, often relative to untreated cells – in the assay on HeLa cells [1] is reported as 100%. For the substance “Adenine-Phe-Phe-Tyr-phosphate [Compound 2A]”, the “transformation of precursor into hydrogelator” value in assay [2] is listed as “completely transforms”. The cell viability with HeLa cells [1] is reported as 100%.

In turn, Adenine-Phe-Phe-glucosamine [2A′] displayed a cell viability with mammalian cells of 90%. As for Adenine-Phe-glucosamine [1A′], the “cell viability (in words)” value in the assay with mammalian cells was “decreased slightly”. In the case of Cytosine-Phe-Glucosamine [1C′], the “cell viability (in words)” value in the assay with mammalian cells is listed as “decreased slightly”. In the case of Cytosine-Phe-Phe [Compound 1C], in the assay with HeLa cells [1], the cell viability is given as 100%. In the case of Cytosine-Phe-Phe-Glucosamine [2C′], in the assay on mammalian cells, the cell viability was 90%.

As for “Cytosine-Phe-Phe-Tyr-phosphate [Compound 2C]”, the cell viability in the assay on HeLa cells [1] turned out to be 100%.

For Guanine-Phe-Phe [Compound 1G], in the assay on HeLa cells [1], the “cell viability (in words)” value is “decreases slightly”. The same measure, in the same setting: as for “Guanine-Phe-Phe-Tyr-phosphate [Compound 2G]”, the entry is “decreases slightly”. Consider Guanine-Phe-Phe-glucosamine [2G′], for which the cell viability in the assay on mammalian cells is reported as 90%. Same read-out and setting: to Guanine-Phe-glucosamine [1G′] belongs 90%. The substance Thymine-Phe-Phe [Compound 1T] displayed a cell viability in the assay on HeLa cells [1] of 100%. The same measure, in the same setting: to “Thymine-Phe-Phe-Tyr-phosphate [Compound 2T]” belongs 100%. Substance Thymine-Phe-Phe-glucosamine [2T′] registered a cell viability in the assay with mammalian cells of 90%. Take Thymine-Phe-glucosamine [1T′]: the “delivery of FITC-labeled nucleic acid” value with HeLa cells [3] is “nuclear localization of DNA”. Besides, in the assay with mammalian cells, the cell viability was found to be 90%. The “effect on the migration of cells” value in the assay on HeLa cells [4] is given as “little inhibitory effect”.
